Reference: patent US20180206489A1, “REPELLENT EFFECTIVE AGAINST ANOPHELES GAMBIAE” (Simon Fraser University, priority 2014, published 2018)
“Also recorded” adds a separate entry of the source.

What was measured:
Anopheles gambiae [1] = test: Electroantennogram (EAG) screening assay on female antennae
Experimental: EAG recordings were obtained using a Combi Probe (Syntech, Kirchzarten, Germany) fitted with glass capillary Ag/AgCl electrodes, filled with insect Ringer solution. Fine, tapered capillaries were prepared on a Gravipull-2 capillary puller (Kation Scientific, Minneapolis, USA). Data were recorded with an IDAC-4 data acquisition system (Syntech), interfaced with a computer that had the software EAGpro (version 1.1, Syntech). Stimuli were dissolved in hexane […] and applied to small filter papers (Whatman No. 1) (10 μL). This gave doses on the filter paper of 1 μg, 10 μg and 100 μg. After evaporation of the solvent, the filter papers were placed in a Pasteur pipette. Pipettes were attached to a CS-55 stimulus controller ([…]) that delivered a pulse of air (30 mL/s) through the pipette and into a metal stimulus delivery tube (Ø 0.95 cm×18 cm) that dispensed a continuous airflow (25 mL/s) and was positioned approximately 2 cm from the mosquito antenna so that the airflow contacted the entire antenna. The duration of the pulse was 0.7 s. Screening took place on A. gambiae females 4-7 days post-eclosion. Females were starved (sugar water replaced with distilled water in the colony cage) for 24 hours before trials to ensure a standard hunger level in test subjects. Mosquitoes were prepared for trials in this manner: the head of the mosquito was excised and the base of the head was connected to the ground electrode. The tip of the distal segment of one antenna was cut and inserted it into the recording electrode. Only mosquitoes producing a steady baseline reading were used for trials. All readings were taken within 10 minutes of the time the mosquito was prepared and each female was tested only once with one full chemical series. Trials included human scent emanating from a sock (Tradition brand, nylon) previously conditioned through 30 minutes of vigorous exercise by a volunteer and incubated at 28° C. and 80% RH for 24 hours. […] For trials, the sock was cut into 0.5 cm×3 cm strips and put into the pipette dispensing the odor pulses. Odors in each run were presented to the mosquito in the following order with at least 25 seconds between odor pulses: no odor, no odor, 10 μg DEETTM, 10 μg chemical, no odor, no odor, human scent only, human scent with 1 μg chemical, human scent with 10 μg chemical, human scent with 100 μg chemical, human scent only, no odor, no odor, 10 μg DEETTM. Several of these pulses served as internal controls to ensure that the mosquito antenna was still responding to the stimuli, or the human odor was detectable to the mosquito. One of the pulses, such as air pulse, produced a response, but it is smaller than that of odor or of presented compounds, seven […]. The DEETTM pulses were included as a reference. The pulses of interest were those containing both the human odor and chemical of interest in various concentrations. 9 runs were completed for each chemical tested and recorded the amplitude of the peaks produced for each odor pulse. […] All data were analyzed in R version 2.15.0 (R Development Core Team, 2012). […] EAG activity values were analyzed using a generalized least squares ANOVA with a variance structure that accounts for measurements within runs being more similar than measurements between runs. […] Behavioural assay data was analyzed using a MANOVA with solvent type and chemical (including concentration) as factors. […]

Culex quinquefasciatus = details: cited from earlier work
Anopheles gambiae [2] = test: Behavioural olfactometer assay with human odor source protected by chemical and alternate plant (honey) odor source; format: in vivo; details: for repelling efficacy, DEET vs 3c{3,6}: 0.1% solution; for total experiment time (time in the proximity of the human odor source) vs unprotected control / probe time (time on the human odor source) vs unprotected control / number of probe attempts at the human odor source vs unprotected control: 1% chemical on mesh over human odor, P<0.05; for total experiment time (time in the proximity of the human odor source) vs unprotected control: FIG. 5A; for probe time (time on the human odor source) vs unprotected control: FIG. 5B; for number of probe attempts at the human odor source vs unprotected control: FIG. 5C
Experimental: The olfactometer procedure and materials used in this study are similar to those employed by Zappia and Roitberg (2012) Energy-state dependent responses of Anopheles gambiae (Diptera: Culicidae) to simulated bednet-protected hosts. J. Vector Ecol. 37 (1): 173-8, herein incorporated by reference in its entirety. The behavioral assay was conducted in a custom-made glass olfactometer tube (145 cm long, 17 cm diameter) (FIG. 2). A mosquito release chamber was located on one side of the tube and consisted of a small tube with a gate attached separating the mosquito from the experiment arena. A small sac (10 cm×3 cm in diameter) made of mesh (Onsight equipment insecticide free hiker's mosquito shelter) was positioned 60 cm from the end of the release chamber. The mesh sac was immersed in the treatment compound immediately before trials and allowed to dry before the trial began. The sac contained human odor in the form of a sock (Secret brand, nylon) conditioned through 30 minutes of strenuous exercise and incubated at 28° C. and 80% RH for 24 hours before use. This sock was tested to ensure it was attractive to mosquitoes at the beginning of each trial day (by placing it in a non-experimental colony cage and observing whether females in the cage would seek it out to probe at it) and replaced every 5 days. A breathing tube was also attached to the human odor/chemical complex that allowed a one-way flow of exhaled carbon dioxide into the arena through the sock to make the human odor more attractive to A. gambiae. Carbon dioxide was exhaled into this tube once every 15 seconds during trials. An odor-producing sugar source was located 73 cm from the human odor/chemical complex. This consisted of a cotton ball impregnated with approximately 5 g of honey (Kidd Bros, Alfalfa Clover). The ball was suspended on a metal stage from the top of the olfactometer tube. This gave the mosquito an alternative during trials from seeking the human odor source. At the opposite end of the tube from the release gate was an air source pumping a one-way source of carbon-filtered air into the olfactometer arena flowing from the sugar source to the human odor to the release gate at a rate of 0.025 L/s. The olfactometer was rinsed daily with acetone and water to minimize residual odors. A 2×5 factorial design was used with solvent type and chemical as factors. The solvent types tested were a 1:1 and 1:5 ratio of isopropyl alcohol to water. Two different solvent types were assessed to determine the lowest ratio of alcohol to water that would be effective, since a lower concentration of alcohol is both more cost effective and practical in the field. […] In addition, we tested DEET™ as a positive control compound. Two concentrations of DEET™ and 3c{3,6} (0.1% and 1%) and a control were assessed for each solvent consisting of the solvent without the active ingredient (0% concentration). Female A. gambiae (4-7 days old, not previously blood-fed, and without a visibly swollen abdomen, wing size 2.93 mm-3.49 mm) were starved for 24 hours before assays. All assays were run under dim red light (1.79 μmol photons/(s×m^2)) in the colony chamber 1-5 hours after darkness since this is the period in which blood-seeking behaviour in females is highest. Mosquitoes were allowed to acclimate in the release chamber for 3 minutes before trials began. After 3 minutes, the release gate was opened. […] When the mosquito entered the arena, timing began. During trials, the olfactometer design was such that the mosquito encountered the human odor/chemical first, followed by the sugar odor source. The experiment arena consisted of the area in the olfactometer that was placed in front of the plant odor source, relative to the release point of the mosquito. Trials ended when the mosquito landed anywhere in the arena and rested for 5 minutes or flew to the plant sugar source. […]

Aedes aegypti = details: cited from earlier work
[3] = system: neurons in the sacculus on the antenna that express an ionotropic receptor (IR40a); details: cited from earlier work
[4] = system: olfactory receptor neurons on the maxillary palps of A. gambiae; details: cited from earlier work

Row | SMILES | enhancement or inhibition of antennal responses to human scent (Anopheles gambiae [1]; compound + human scent) | antennal (olfactory) response to compound by itself (Anopheles gambiae [1]; compound alone, EAG) | direct detection of DEET (Culex quinquefasciatus) | inhibition of neuron response to 1-octen-3-ol (Culex quinquefasciatus) | repelling efficacy, DEET vs 3c{3,6} (Anopheles gambiae [2]) | total experiment time (time in the proximity of the human odor source) vs unprotected control (Anopheles gambiae [2]) | probe time (time on the human odor source) vs unprotected control (Anopheles gambiae [2]) | number of probe attempts at the human odor source vs unprotected control (Anopheles gambiae [2]) | direct detection of DEET (Aedes aegypti) | inhibition of neuron response to 1-octen-3-ol (Aedes aegypti) | stimulation of IR40a-expressing sacculus neurons [3] | inhibition of olfactory receptor neurons (decreased response to 1-octen-3-ol) [4] | depolarization response of compound by itself (Anopheles gambiae [1]; 100 μg dose, FIG. 6) | air-corrected antennal depolarization, chemical alone (without the human odor) (Anopheles gambiae [1]; FIG. 4, difference not significant (P>0.05)) | EAG activity: response to repellent/human odor source combination compared to DEET reference peak (Anopheles gambiae [1]; human scent with 1 μg, 10 μg, 100 μg chemical (pooled), FIG. 3) | behavioural response compared with DEET (Anopheles gambiae [2]; 1% solution) | repellent efficacy against A. gambiae (overall conclusion) (Anopheles gambiae [2]; in vivo)
1 | CCN(CC)C(=O)c1cccc(C)c1 [DEET™, N—N-diethyl-meta-toluamide] | did not affect the responses to the human scent | responded; also recorded: elicited olfactory responses by itself | detect DEET™ directly | this inhibition was not detected | more effective at repelling A. gambiae individuals than a 0.1% solution of 3c{3,6} | spent less time in the proximity of the human odor source | spent less time on the human odor source | attempted to probe less | detect DEET™ directly | this inhibition was not detected | stimulate neurons in the sacculus on the antenna of Drosophila melanogaster | inhibits olfactory receptor neurons on the maxillary palps of A. gambiae |  |  |  |  | 
2 | C=CCOc1ccc(OCCC)cc1 [3c{3,6}, 1-allyloxy-4-propoxybenzene] |  |  |  |  | a 0.1% solution of DEET™ was more effective | spent less time in the proximity of the human odor source | spent less time on the human odor source | attempted to probe less |  |  |  |  | one of the largest depolarization responses by itself | larger air-corrected antennal depolarization than the other compounds tested | largest activity of all the compounds tested | comparable response in mosquitoes to a 1% solution of DEET™ | effective repellent for A. gambiae; also recorded: effective repellent against A. gambiae
